Data set [1] is described as follows: refractive index (Na D-line) (dimensionless). The settings on record: 298.15 K; 101.33 kPa; Liquid; Standard Abbe refractometry.
The conditions of data set [2]: 298.15 K; 101.33 kPa; Liquid; Vibrating tube method.

The structures appear in SMILES notation. ± gives the expanded uncertainty stated by the source.

The results in this text go back to the NIST ThermoML archive (doi:10.1016/j.tca.2010.07.017).

One may read the refractive index as a measure of how strongly the sample bends light. The mass density is the mass of a sample divided by its volume. For `CC(C)=O` [acetone], in data set [1], the refractive index is reported as 1.3563 ± 0.0004. In addition, in data set [2], the mass density is 784.65 ± 0.12 kg/m3.

For the molecule `C1COCCO1` [1,4-dioxane], the refractive index in data set [1] was 1.4202 ± 0.0004. Further, the mass density in data set [2] is 1028.12 ± 0.11 kg/m3.

Take `C1CCOC1` [tetrahydrofuran]: in data set [1], the refractive index worked out at 1.4048 ± 0.0004. The mass density in data set [2] is recorded as 882.03 ± 0.1 kg/m3.
